Experiments:
Assay type in all cases: in vivo
[1] = test system: Johnsongrass (Sorghum halepense, SORHA); experiment: Pre-emerge greenhouse herbicide test, phytotoxicity rating; conditions: 14 days after application, rating scale 0-100
How it was run: (§1)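 Visual 0–100 injury rating (100 = all plants dead) taken 14 days after treatment. Rates of 125–1000 g ai/ha in acetone, 187 l/ha, were sprayed onto soil one day post-sowing; pots were surface-watered to incorporate, then bottom-watered.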

[2] = test system: barnyardgrass (Echinochloa crusgalli, ECHCG); experiment: as above; conditions: 14 days after application, rating scale 0-100
How it was run: as §1

[3] = test system: common ragweed (Ambrosia artemisiifolia L., AMBEL); experiment: as above; conditions: 14 days after application, rating scale 0-100
How it was run: as §1

[4] = test system: green foxtail (Setaria viridis, SETVI); experiment: as above; conditions: 14 days after application, rating scale 0-100
How it was run: as §1

[5] = test system: ivyleaf morningglory (Ipomoea hederacea, IPOHE); experiment: as above; conditions: 14 days after application, rating scale 0-100
How it was run: as §1

[6] = test system: lambsquarters (Chenopodium album, CHEAL); experiment: as above; conditions: 14 days after application, rating scale 0-100
How it was run: as §1

[7] = test system: large crabgrass (Digitaria sanguinalis, DIGSA); experiment: as above; conditions: 14 days after application, rating scale 0-100
How it was run: as §1

[8] = test system: redroot pigweed (Amaranthus retroflexus, AMARE); experiment: as above; conditions: 14 days after application, rating scale 0-100
How it was run: as §1

[9] = test system: sicklepod (Cassia obtusifolia, CASOB); experiment: as above; conditions: 14 days after application, rating scale 0-100
How it was run: as §1

[10] = test system: velvetleaf (Abutilon theophrasti, ABUTH); experiment: as above; conditions: 14 days after application, rating scale 0-100
How it was run: as §1

[11] = test system: field corn (Zea mays L., var. Dekalb 535, CORN); experiment: Pre-emerge greenhouse test, crop damage rating; conditions: 14 days after application, rating scale 0-100
How it was run: as §1

[12] = test system: upland rice (Oryza sp., var.Tebonnet, RICE); experiment: Pre-emerge greenhouse test, crop damage rating; conditions: 14 days after application, rating scale 0-100
How it was run: as §1

[13] = test system: soybean (Glycine max L., var. Pella 86, SOY); experiment: Pre-emerge greenhouse test, crop damage rating; design: key to SOY crop damage rating: 0 = no damage, 100 = complete death of all plants; conditions: 14 days after application, rating scale 0-100
How it was run: as §1

[14] = test system: common ragweed (Ambrosia artemisiifolia L., AMBEL); experiment: Post-emerge greenhouse herbicide test, phytotoxicity rating; conditions: 14 days after application, scale 0-100
How it was run: (§2)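 Scores use a 0 (no damage) to 100 (complete kill) scale, taken 14 days after a foliar spray. Acetone solutions with 0.25% v/v non-ionic surfactant were applied by track sprayer at 187 l/ha and 63-1000 g ai/ha to bottom-watered 2-3 leaf plants.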

[15] = test system: Johnsongrass (Sorghum halepense, SORHA); experiment: as above; conditions: 14 days after application, scale 0-100
How it was run: as §2

[16] = test system: barnyardgrass (Echinochloa crusgalli, ECHCG); experiment: as above; conditions: 14 days after application, scale 0-100
How it was run: as §2

[17] = test system: green foxtail (Setaria viridis, SETVI); experiment: as above; conditions: 14 days after application, scale 0-100
How it was run: as §2

[18] = test system: ivyleaf morningglory (Ipomoea hederacea, IPOHE); experiment: as above; conditions: 14 days after application, scale 0-100
How it was run: as §2

[19] = test system: lambsquarters (Chenopodium album, CHEAL); experiment: as above; conditions: 14 days after application, scale 0-100
How it was run: as §2

[20] = test system: large crabgrass (Digitaria sanguinalis, DIGSA); experiment: as above; conditions: 14 days after application, scale 0-100
How it was run: as §2

[21] = test system: redroot pigweed (Amaranthus retroflexus, AMARE); experiment: as above; conditions: 14 days after application, scale 0-100
How it was run: as §2

[22] = test system: sicklepod (Cassia obtusifolia, CASOB); experiment: as above; conditions: 14 days after application, scale 0-100
How it was run: as §2

[23] = test system: velvetleaf (Abutilon theophrasti, ABUTH); experiment: as above; conditions: 14 days after application, scale 0-100
How it was run: as §2

[24] = test system: field corn (Zea mays L., var. Dekalb 535, CORN); experiment: Post-emerge greenhouse test, crop damage rating; conditions: 14 days after application, scale 0-100
How it was run: as §2

[25] = test system: upland rice (Oryza sp., var.Tebonnet, RICE); experiment: Post-emerge greenhouse test, crop damage rating; conditions: 14 days after application, scale 0-100
How it was run: as §2

[26] = test system: soybean (Glycine max L., var. Pella 86, SOY); experiment: Post-emerge greenhouse test, crop damage rating; design: key to crop damage rating SOY: 0-100 scale: 0 = no damage, 100 = complete death of all plants; conditions: 14 days after application, scale 0-100
How it was run: as §2

For `O=c1n(-c2cc(Oc3nccc(Cl)n3)c(Cl)cc2F)c(=S)n2n1CCCC2` [Compound 8-31], the SORHA phytotoxicity rating ([1]; Rate 125 g al/ha) was 0, the SORHA phytotoxicity rating ([1]; Rate 500 g al/ha) was 20 and the ECHCG phytotoxicity rating ([2]; Rate 125 g al/ha) was 0. It also gave an ECHCG phytotoxicity rating ([2]; Rate 500 g al/ha) of 20, an AMBEL phytotoxicity rating ([3]; Rate 125 g al/ha) of 30 and an AMBEL phytotoxicity rating ([3]; Rate 500 g al/ha) of 0. The SETVI phytotoxicity rating ([4]; Rate 125 g al/ha) was 0, the SETVI phytotoxicity rating ([4]; Rate 500 g al/ha) was 90 and the IPOHE phytotoxicity rating ([5]; Rate 125 g al/ha) was 0. It also gave an IPOHE phytotoxicity rating ([5]; Rate 500 g al/ha) of 70, a CHEAL phytotoxicity rating ([6]; Rate 125 g al/ha) of 90 and a CHEAL phytotoxicity rating ([6]; Rate 500 g al/ha) of 100. The DIGSA phytotoxicity rating ([7]; Rate 125 g al/ha) was 0, the DIGSA phytotoxicity rating ([7]; Rate 500 g al/ha) was 70 and the AMARE phytotoxicity rating ([8]; Rate 125 g al/ha) was 100. For the same molecule, the AMARE phytotoxicity rating ([8]; Rate 500 g al/ha) was 100, the CASOB phytotoxicity rating ([9]; Rate 125 g al/ha) was 30 and the CASOB phytotoxicity rating ([9]; Rate 500 g al/ha) was 90. The ABUTH phytotoxicity rating ([10]; Rate 125 g al/ha) was 100, the ABUTH phytotoxicity rating ([10]; Rate 500 g al/ha) was 100 and the “CORN crop damage rating” value ([11]; Rate 125 g al/ha) was 0. For the same molecule, the “CORN crop damage rating” value ([11]; Rate 500 g al/ha) was 0, the “RICE crop damage rating” value ([12]; Rate 125 g al/ha) was 0 and the “RICE crop damage rating” value ([12]; Rate 500 g al/ha) was 10. For the same molecule, the “SOY crop damage rating” value ([13]; Rate 125 g al/ha) was 40, the “SOY crop damage rating” value ([13]; Rate 500 g al/ha) was 0 and the “phytotoxicity rating AMBEL” value ([14]; rate 63 g ai/ha) was 50. The “phytotoxicity rating AMBEL” value ([14]; rate 500 g ai/ha) was 95, the “phytotoxicity rating SORHA” value ([15]; rate 63 g ai/ha) was 0 and the “phytotoxicity rating SORHA” value ([15]; rate 500 g ai/ha) was 30. For the same molecule, the “phytotoxicity rating ECHCG” value ([16]; rate 63 g ai/ha) was 0, the “phytotoxicity rating ECHCG” value ([16]; rate 500 g ai/ha) was 20 and the “phytotoxicity rating SETVI” value ([17]; rate 63 g ai/ha) was 10. The “phytotoxicity rating SETVI” value ([17]; rate 500 g ai/ha) was 40, the “phytotoxicity rating IPOHE” value ([18]; rate 63 g ai/ha) was 80 and the “phytotoxicity rating IPOHE” value ([18]; rate 500 g ai/ha) was 80. The “phytotoxicity rating CHEAL” value ([19]; rate 63 g ai/ha) was 90, the “phytotoxicity rating CHEAL” value ([19]; rate 500 g ai/ha) was 95 and the “phytotoxicity rating DIGSA” value ([20]; rate 63 g ai/ha) was 0. For the same molecule, the “phytotoxicity rating DIGSA” value ([20]; rate 500 g ai/ha) was 50, the “phytotoxicity rating AMARE” value ([21]; rate 63 g ai/ha) was 70 and the “phytotoxicity rating AMARE” value ([21]; rate 500 g ai/ha) was 100. For the same molecule, the “phytotoxicity rating CASOB” value ([22]; rate 63 g ai/ha) was 0, the “phytotoxicity rating CASOB” value ([22]; rate 500 g ai/ha) was 80 and the “phytotoxicity rating ABUTH” value ([23]; rate 63 g ai/ha) was 70. For the same molecule, the “phytotoxicity rating ABUTH” value ([23]; rate 500 g ai/ha) was 100, the “crop damage rating CORN” value ([24]; rate 63 g ai/ha) was 5 and the “crop damage rating CORN” value ([24]; rate 500 g ai/ha) was 10. The “crop damage rating RICE” value ([25]; rate 63 g ai/ha) was 0, the “crop damage rating RICE” value ([25]; rate 500 g ai/ha) was 5 and the “crop damage rating SOY” value ([26]; rate 63 g ai/ha) was 70. For the same molecule, the “crop damage rating SOY” value ([26]; rate 500 g ai/ha) was 70.

From patent US6479435B1, “Diaryl ethers and processes for their preparation and herbicidal and desiccant compositions containing them” (ISK Americas Incorporated, priority 1997, dated 2002)
